Source: US20110065715A1, “Nogo Receptor Binding Small Molecules to Promote Axonal Growth” (Yale University, priority 2007, published 2011)
“Also recorded” adds a separate entry of the source. Where two headings read alike, the source gives them in different places.

Columns and labels:
[1] = tested on: embryonic day 13 or 14 chick DRG neurons; assay: Neurite outgrowth assay, E13/E14 chick DRG neurons; assay type: cell-based, chicken; conditions: 20 μM; for neurite outgrowth compared to the DMSO control: E13 or E14 chick DRG, two to four hours
Description: (§1) To test the ability of the “hit” compounds to promote neurite outgrowth, a neurite outgrowth assay was performed using each of these compounds. Dorsal root ganglia (DRG) were removed from chicken embryos at embryonic day 13 or 14, dissociated by trituration after 30 min incubation in 0.5% collagenase, and plated on laminin-coated 96-well tissue culture plates in DMEM with 10% fetal bovine serum containing 20 μM of the test compound. After two to four hours of incubation, the cells were fixed in 4% formaldehyde in phosphate buffered saline (PBS), washed in PBS, and blocked for 1 hour in PBS with 0.1% triton X-100 and 10% goat serum. The cells were incubated in rabbit anti-beta-3-tubulin (1:500) in PBS overnight and then washed 3 times with PBS. The cells were then incubated in Alexa-fluor 488 goat anti-rabbit IgG (1:500) for 6 hrs, washed with PBS, and imaged at 10× with an ImagExpress automated microscope (Molecular Devices, Inc.). Neurite outgrowth was measured with AcuityExpress software (Molecular Devices, Inc.).

[2] = tested on: Nogo receptor:Nogo ligand (Nogo 66) interaction; assay: ELISA assay of NgR:Nogo ligand interaction; assay type: binding
Description: In the ELISA assay, 96 well streptavidin coated plates were blocked overnight with PBS and 10 mg/ml bovine serum albumin (BSA) (200 μl). The wells were then coated for 1.5 hours with sonicated HBH (Hanks Balanced Salt Solution/0.1 M HEPES/1 mg/ml BSA) containing Nogo 66 (B66) (0.5 μl of 10 mM/10 ml HBH) (50 μl) and then washed 4 times with 200 μl of HBH. The solution containing the inhibitor compound (50 μl in HBH) was added along with 1% FcNgR solution in HBH (50 μl), and the solution was incubated for 2 hours. The wells were washed 5 times with HBH. Alkaline phosphatase (AP) conjugated mouse anti-rat antibody (1:2500) was added and the wells were then washed 5 times with HBH. Colorimetric alkaline phosphatase substrate was added for 30 minutes and the plate was read with the Perkin Elmer Victor 5 instrument. (FIG. 10A). […] (FIG. 10C).

[3] = tested on: Nogo receptor:Nogo ligand (Nogo 66) interaction; assay: DELFIA assay of Fc-NgR:Ng66 interaction; assay type: binding
Description: ELISA and DELFIA assays were then performed to evaluate the ability of the small molecules that were identified as “hits” in the AlphaScreens to inhibit the interaction of NgR and Nogo ligand. In the DELFIA Assay, 96 well streptavidin coated plates were blocked overnight with PBS and 10 mg/ml bovine serum albumin (BSA) (200 μl). The wells were then coated for 1.5 hours with sonicated HBH (Hanks Balanced Salt Solution/0.1 M HEPES/1 mg/ml BSA) containing Nogo 66 (B66) (0.5 μl of 10 mM/10 ml HBH) (50 μl) and then washed 4 times with 200 μl of HBH. The solution containing the inhibitor compound (50 μl in HBH) was added along with 1% FcNgR solution in HBH (50 μl), and the solution was incubated for 2 hours. The wells were washed 5 times with HBH. Alkaline phosphatase (AP) conjugated mouse anti-rat antibody (1:2500) was added and the wells were then washed 5 times with DELFIA wash buffer. The Europium (Eu) anti-mouse antibody was then added in Perlin Elmer Assay, buffer (100 μg/ml) (150 μl) and the wells were again washed 5 times with DELFIA wash buffer. The enhancer solution was added (100 μl) and the plate was read with the Perkin Elmer Victor 5 instrument 15 minutes later. (FIG. 10B) The results from the DELFIA assay indicate that compounds HTS08871, KM08071, and 503749, as well as the positive control, NEP33, inhibit the Nogo receptor:Nogo ligand (Nogo 66) interaction. (FIGS. 10D and 11A-C).

[4] = tested on: embryonic day 13 (E13) chick DRG neurons; assay: Competition neurite outgrowth assay with soluble FcNgR; assay type: cell-based, chicken; conditions: for outgrowth promoting effect when coadministered with FcNgR: with 7.5 μM FcNgR, 3.5 hours
Description: as §1
To further verify the mechanism of how the compounds are promoting neurite outgrowth, a competition assay was performed. […] (FIG. 12B). compounds KM, HTS or 555 were then coadministered with 7.5 μM of FcNgR. […] (FIGS. 14A-B and 17B).

[5] = tested on: embryonic day 8 (E8) chick DRG neurons; assay: Neurite outgrowth assay, E8 chick DRG neurons (no Nogo receptor expressed); assay type: cell-based, chicken; conditions: Nogo receptor not yet expressed
Description: as §1
In another experiment to verify the mechanism of action, a neurite outgrowth assay was performed as described above except the Dorsal root ganglia (DRG) were removed from chicken embryos at embryonic day 8 instead of day 13. At day 8, Nogo receptor is not yet expressed in the DRG. The compounds KM, HTS, 555, 5470, 585 were administered as described above and neurite outgrowth was measured. […] (FIG. 21)

[6] = tested on: Fc-NgR:Ng66 interaction; assay: AlphaScreen of Fc-NgR:Ng66 interaction; assay type: binding
Sequence of Fc-NgR:Ng66 interaction (Q99M75 27-310 limits assumed): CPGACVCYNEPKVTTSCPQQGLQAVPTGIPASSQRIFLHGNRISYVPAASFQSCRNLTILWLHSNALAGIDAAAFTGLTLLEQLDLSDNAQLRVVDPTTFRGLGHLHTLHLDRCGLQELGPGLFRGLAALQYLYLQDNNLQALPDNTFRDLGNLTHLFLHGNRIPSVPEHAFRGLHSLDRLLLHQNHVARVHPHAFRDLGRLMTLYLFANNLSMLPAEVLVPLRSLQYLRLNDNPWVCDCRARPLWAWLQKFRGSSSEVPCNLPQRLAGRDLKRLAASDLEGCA
Description: An AlphaScreen assay was used to screen for small molecule inhibitors of the Nogo receptor-Nogo ligand interaction. The AlphaScreen assay involves matching Alpha Donor (Streptavidin) and Acceptor beads (Protein A). (FIG. 1) These beads are coated with a layer of hydrogel to provide functional groups for bioconjugation. […] However, if a biological reaction brings the Alpha Donor and Acceptor beads into close proximity, upon laser excitation, a cascade of chemical reactions produces a greatly amplified signal. (FIG. 3) Upon laser excitation, a photosensitizer inside the Donor bead converts ambient oxygen to a more excited singlet state. The singlet state oxygen molecules diffuse to produce a chemiluminescent reaction in the Acceptor bead, leading to light emission. In the absence of a specific biological interaction, the singlet state oxygen molecules produced by the Donor bead go undetected without the close proximity of the Acceptor bead.
Beads conjugated to streptavidin were used to bind biotinylated Nogo 66 (Ng66) (the 66 amino acid inhibitory domain in the carboxyl region of Nogo ligand), and beads conjugated to Protein A were used to bind an Fc-Nogo receptor (NgR) fusion protein. (FIG. 2) By virtue of the interaction of Ng66 and Fc-NgR, the acceptor beads and donor beads were brought into proximity, yielding a signal upon excitation. […] (FIGS. 4 and 6). […]

Compound	neurite outgrowth compared to the DMSO control [1]	effect on neurite outgrowth of day 8 DRGs [5]	also measured
CN(C)c1ccc(Cc2ccc(N(C)C)cc2)cc1 [BTB11222, N1,N1-dimethyl-4-[4-(dimethylamino)benzyl]aniline]	promoted neurite outgrowth	–	–
N.N.[Cl][Pt][Cl] [Cisplatin]	–	–	inhibition of Nogo receptor:Nogo 66 interaction, ELISA [2]: inhibit
COc1ccc2c(c1)NC(c1ccc(N(C)C)cc1)c1cccn1-2 (centres unmarked) [HTS, 4′-(7-methoxy-4,5-dihydropyrrolo[1,2-a]quinoxalin-4-yl)-N,N-dimethylaniline]	promoted neurite outgrowth	no effect	inhibition of Nogo receptor:Nogo 66 interaction signal, DELFIA [3]: dose dependent signal inhibition; inhibition of Nogo receptor:Nogo 66 interaction signal, DELFIA ([3]; listed as HTS08871): inhibit; neurite outgrowth in the absence of exogenous FcNgR [4]: promoted neurite outgrowth; outgrowth promoting effect when coadministered with FcNgR [4]: inhibited; also recorded: blocking
N#C/C(=C\c1ccc(C#Cc2ccccc2)cc1)C(=O)c1ccc(Cl)cc1 [KM, 2-(4-chlorobenzoyl)-3-[4-(2-phenyleth-1-ynyl)phenyl]acrylonitrile]	promoted neurite outgrowth	no effect	inhibition of Nogo receptor:Nogo 66 interaction signal, DELFIA [3]: dose dependent signal inhibition; inhibition of Nogo receptor:Nogo 66 interaction signal, DELFIA ([3]; listed as KM08071): inhibit; basal neurite outgrowth, E13 chick DRG neurons [1]: neurite outgrowth promoting effect; neurite outgrowth in the absence of exogenous FcNgR [4]: promoted neurite outgrowth; outgrowth promoting effect when coadministered with FcNgR [4]: inhibited; also recorded: blocking
Cc1nccc(-c2cccc(N/N=C(\C#N)C(=O)c3ccc(Cl)cc3)c2)n1 [KMO2502]	inhibited neurite outgrowth	–	–
N#Cc1ccc(Cn2c(=O)sc3ccccc32)cc1 [compound 535, 4-[(2-oxo-1,3-benzothiazol-3(2H)-yl)methyl]benzonitrile]	promoted neurite outgrowth	–	–
CN(C)c1ccc(C2C=Cc3ccccc3N2C(=O)c2ccccc2)cc1 (centres unmarked) [compound 536, 4-(1-benzoyl-1,2-dihydro-2-quinolinyl)-N,N-dimethylaniline]	promoted neurite outgrowth	–	–
CCOC(=O)C1=C(C)N=C2SCC(=O)N2C1c1ccc(N(C)C)cc1 (centres unmarked) [compound 555, ethyl 5-[4-(dimethylamino)phenyl]-7-methyl-3-oxo-2,3-dihydro-5H-[1,3]thiazolo[3,2-a]pyrimidine-6-carboxylate]	promoted neurite outgrowth	no effect	basal neurite outgrowth, E13 chick DRG neurons [1]: neurite outgrowth promoting effect; neurite outgrowth in the absence of exogenous FcNgR [4]: promoted neurite outgrowth; outgrowth promoting effect when coadministered with FcNgR [4]: inhibited; also recorded: blocking
Cc1oc2ccc(O)cc2c1C(=O)c1ccc(Cl)cc1 [compound 585, (4-chlorophenyl)(5-hydroxy-2-methyl-1-benzofuran-3-yl)methanone]	promoted neurite outgrowth	no effect	basal neurite outgrowth, E14 chick DRG neurons [1]: neurite outgrowth promoting effect
CN1C(=O)C(O)(CC(=O)c2ccc(Cl)cc2)c2ccccc21 (centres unmarked) [compound 592, 3-[2-(4-chlorophenyl)-2-oxoethyl]-3-hydroxy-1-methyl-1,3-dihydro-2H-indol-2-one]	inhibited neurite outgrowth	–	–
CCN1C(=O)C(O)(CC(=O)c2ccc(Cl)cc2)c2ccccc21 (centres unmarked) [compound 664, 3-[2-(4-chlorophenyl)-2-oxoethyl]-1-ethyl-3-hydroxy-1,3-dihydro-2H-indol-2-one]	inhibited neurite outgrowth	–	–
CCc1cccc2c(C(C)=O)cn(Cc3ccc(C#N)cc3)c12 [compound 794, 4-[(3-acetyl-7-ethyl-1H-indol-1-yl)methyl]benzonitrile]	promoted neurite outgrowth	–	–
O=C(c1ccc(Cl)cc1)c1coc2ccc(O)cc12 [compound 5470, (4-chlorophenyl)(5-hydroxy-1-benzofuran-3-yl)methanone]	promoted neurite outgrowth	no effect	basal neurite outgrowth, E14 chick DRG neurons [1]: neurite outgrowth promoting effect
Cc1ccc2occ(C(=O)c3ccc(Cl)cc3)c(=O)c2c1 [compound 5472, 3-(4-chlorobenzoyl)-6-methyl-4H-chromen-4-one]	promoted neurite outgrowth	–	–
O=C(CC1(O)C(=O)Nc2ccc(Br)cc21)c1ccc(Cl)cc1 (centres unmarked) [compound 5475, 5-bromo-3-[2-(4-chlorophenyl)-2-oxoethyl]-3-hydroxy-1,3-dihydro-2H-indol-2-one]	inhibited neurite outgrowth	–	–
Acetyl-RIYKSVLQAVQKTDEGHPFKAYLELEITLSQEQ-Amide (Ac-RIYKSVLQAVQKTDEGHPFKAYLELEITLSQEQ-NH2) [NEP33]	–	–	interference with Ng66:Fc-NgR interaction (AlphaScreen signal) [6]: reducing signal; inhibition of interaction of Ng66 and Fc-NgR (AlphaScreen signal) ([6]; 20 hours incubation, concentration between 1.25 μM and 20 μM, beads 5 μg/ml): inhibited; inhibition of Nogo receptor:Nogo 66 interaction signal, DELFIA [3]: inhibit; inhibition of Nogo receptor:Nogo 66 interaction, ELISA [2]: inhibit
